One experiment relates to neocortical slices. The experiment can be described thus: Field potential recordings of epileptiform activity in neocortical slices. Format: cell-based, rat. The protocol:
Brain slices for the in vitro experiments were prepared by means of standard techniques (Ivens et al., 2007; Pavlovsky et al., 2003; Seiffert et al., 2004). Slices were transferred to a recording chamber where they were incubated in aCSF containing BSA (6.7 mg/ml), TGF-β1 (10 ng/ml) or artificial serum (aSerum, composition based on aCSF with the following changes, composition in mM: 0.8 MgSO4, 1.3 CaCl2, 5.7 KCl, 1 L-glutamine, 0.1 albumin). To block the activity of TGF-β1, slices were incubated in aCSF containing SB431542 (10 μM) before the addition of TGF-β1 (10 ng/ml). To block TGF-βRs, slices were incubated in aCSF containing SB431542 (10 μM) and TGF-βRII antibody (10 μg/ml) for 30 min followed by incubation in BSA in the presence of TGF-βR blockers. For detection of epileptiform activity, field potentials were recorded >4 h following incubation in cortical layer IV using extracellular glass microelectrodes (˜3 MΩ) in response to bipolar stimulation at the border of white and grey matter.
To assess the hypothesis that activation of the TGF-β signaling pathway is the mechanism underlying albumin-induced epileptogenesis, we activated this pathway directly by incubating neocortical slices with TGF-β1 (10 ng/mL) in artificial cerebrospinal fluid (aCSF) and performed electrophysiological recordings. These recordings were compared to those of slices treated with a solution containing serum levels of electrolytes and 0.1 mM albumin (aSERUM, previously shown to induce epileptogenesis; Ivens et al., 2007), albumin in aCSF, or aCSF (control). […] When albumin was added to the control aCSF solution, epileptiform activity was recorded in response to stimulation of the white matter (n=8 out of 12 slices, 6 animals). Importantly. TGF-β1 treatment was sufficient to recapitulate epileptiform activity similar to that seen following treatment with aSERUM and albumin in aCSF (n=5 out of 5 slices, 4 animals; n=7 out of 9 slices, 3 animals; and n=8 out of 12 slices, 6 animals, respectively). In all three cases, the evoked epileptiform activity, was all-or-none in nature, paroxysmal and prolonged, similar to that seen following BBB opening with bile salts (Ivens et al., 2007; Seiffert et al., 2004) and typical to that observed in acute models of epilepsy (Gutnick et al., 1982).
To further confirm that the TGF-β1 induced epileptiform activity was dependent on the TGF-βR mediated pathway, we performed additional trials of the above experiments in the presence of two TGF-βR blockers (SB431542, the TGF-βRI kinase activity inhibitor and TGF-βRII antibody).

The subject of another experiment is Smad2. The experiment can be described thus: Smad2-P Western blot of cortical lysates after in vivo albumin treatment. Conditions: animals exposed for 48 hours, compared to sham-operated controls. Set-up: species or system rat. The protocol:
All experimental procedures were approved by the ethical committees dealing with experiments on animals at Charité University Medicine, Berlin and Ben-Gurion University of the Negev, Beer-Sheva. The in vivo experiments were performed as previously described (ivens et al., 2007; Seiffert et al., 2004). Adult male Wistar rats were treated with artificial cerebrospinal fluid (aCSF, composition in mM: 129 NaCl, 21 NaHCO3, 1.25 NaH2PO4, 1.8 MgSO4, 1.6 CaCl2, 3 KCl, 10 glucose) supplemented with deoxycholic acid (DOC, 2 mM, Sigma-Aldrich, Steinheim, Germany), bovine serum albumin (BSA, 0.1 mM. Merck, Darmstadt, Germany) corresponding to 25% of serum albumin concentration, or with TGF-β1 (10 ng/ml, Peprotech, Rocky Hill, N.J.). Sham-operated animals (perfused with aCSF) served as controls. […] Animals were sacrificed 7/8, 24, or 48 hours following treatment. […]
To determine whether albumin binds to TGF-β receptors, co-immunoprecipitation using antibodies against albumin or TGF-βRII was performed on cortical lysate samples treated with albumin. An expected hand corresponding to TGF-βRII was detected in samples immunoprecipitated with the TGF-βRII antibody. More importantly, this band was also detected in samples pre-incubated with albumin when immunoprecipitated with the albumin antibody and probed for TGF-βRII (FIG. 2a). […]
For orientation: Immunoblotting shows a protein as a band on a membrane.

“albumin: bovine serum albumin, used to induce epileptogenesis”: the “integral of the field potential” value in the experiment on neocortical slices (inducer alone, without TGF-βR blockers) was found to be 117.2±35.4 mV*ms. Further, the “evoked epileptiform activity in response to stimulation of the white matter, slices showing it” value in the experiment on neocortical slices (slices incubated with the inducer) is reported as 8 out of 12. Also, the “Smad2 phosphorylation levels in cortical lysates” value in the experiment with Smad2 is listed as “increase in Smad2 phosphorylation”.

Values taken from patent US10668049B2, “Methods of treating cognitive decline with transforming growth factor beta inhibitors” (The Regents of the University of California, priority 2008, dated 2020).
